Data as given in patent US10485772B2, “Compositions for modulating cancer stem cells and uses therefor” (University of Canberra, priority 2014, dated 2019).
Entries after “also recorded” stand apart in the source; their conditions may differ.

What was measured:
Assay type in all cases: cell-based, human
[1] = system: CD44^high/CD24^low CSC-like subpopulation of PMA-stimulated MCF-7 cells (MCF-IM model); assay: FACS analysis of CD44high/CD24low CSC-like subpopulation in MCF-IM model; details: for CD44 high CD24 low-CSC-like subpopulation (CSC formation) by FACS: NCD38 5 μM for 17 hr prior to PMA stimulation for 60 hours
Experimental: (§1) Cells from each well/flask were harvested by means of trypsin treatment followed by two washes with PBS. Washed cells then re-suspended in an antibody cocktail consisting anti-CD44-APC, anti-CD24-PE antibodies (details in Table 5) and Hoechst 33258 dye (final dilution of 1:1000) (Invitrogen, Carlsbad, Calif.) in 1% FCS-PBS solution. Cells re-suspended in antibody cocktail were incubated for 20 minutes at 4° C. Cells were next washed twice with PBS and re-suspended in 1% FCS-PBS solution (volume based on cell number) and kept on ice until analyzed by FACS. Forward scatter (FSC) and side scatter parameters were selected with FITC fluorochrome excited by 488 nm argonion laser, PE fluorochrome excited by 488 nm and Hoechst fluorochrome excited by 350 nm helium-cadmium UV laser.
(§2) Flow Cytometry data was produced using either BD FACS LSR Flow Cytometer (Becton Dickinson Biosciences) or BD FACS Aria™ II Flow Cytometer (Becton Dickinson Biosciences) and analyzed using the data acquisition software CellQuest Pro (Becton Dickinson Biosciences) and FlowJo (Tree Star Inc., Ashland, Oreg.) software at the MCRF facility, JCSMR, ANU, Canberra, Australia. Single colour controls were used to set compensation parameters. Isotype controls were used for all corresponding primary antibodies in each experiment.
The FACS gating strategy used in this thesis is adopted and modified from the pioneer breast cancer stem cell publications (Al-Hajj et al., 2003) which sorted cells based on the CD44^high and CD24^low expression. […] To confirm that anti-CD44-APC and anti-CD24-PE antibodies were specific, isotype control antibodies were used. The isotype (negative controls) used for anti-CD24-PE was PE Mouse-Anti-human IgG2aK and for anti-CD44-APC was APC-Mouse-Anti-human IgG2bK. First, all the cells were stained with Hoechst 33258 to monitor cell viability. In addition cells were stained with varying concentrations of either APC or PE isotypes controls.
(§3) The adherent human mammary adenocarcinoma MCF-7 and MDA-MB-231 cells were cultured in low glucose DMEM (Gibco) and both supplemented with 10% FCS, 2 mM L-glutamine and 0.1% PSN antibiotics. Cells were stimulated with 0.65 ng/ml of phorbol 12-myristate 13-acetate (PMA) (Sigma-Aldrich) or 20 ng/ml of TGF-β (R&D systems) for the times indicated. For Bisindolylmaleimide-I (Calbiochem) or PKC-θ peptide inhibitor (Calbiochem) studies, cells were pre-treated with 1 μM or 30 μM of inhibitor respectively for 1 h prior to stimulation in MCF-7 cells. In case of MDA-MB-231, cells were treated with 4 μM or 30 μM Bisindolylmaleimide-I or PKC-θ peptide inhibitor respectively.
(§4) To separate CSC from non-CSC (NCSC), florescence activated cell sorting (FACS) was performed on single-cell suspensions that were stained with anti-CD44-APC (559942, BD Biosciences) and anti-CD24-PE antibodies (555428, BD Biosciences) along with Hoechst 33258 to monitor cell viability. As used throughout this work, CSC are defined by minority CD44^high/CD24^low, whereas NCSC are defined by rest of the cell populations.
The adherent human mammary adenocarcinoma cell lines MCF-7 were cultured in low glucose DMEM (Gibco) and supplemented with 10% FCS, 2 mM L-glutamine, and 0.1% PSN antibiotics. Cells were stimulated with 0.65 ng/ml of phorbol 12-myristate 13-acetate (PMA) (Sigma-Aldrich) for 60 hours. FACS was performed on single-cell suspensions stained with anti-CD44-APC (559942, BD Biosciences) and anti-CD24-PE antibodies (555428, BD Biosciences), along with Hoechst 33258 (561908, BD Biosciences) to monitor cell viability as previously detailed (Zafar et al., Chromatinized PKC-theta directly regulates inducible genes in epithelial to mesenchymal transition and breast cancer stem cells. Molecular and Cellular Biology, 2014, 34:16 2961-2980). […]

MCF-7 cells = assay: EMT assay by phase contrast microscopy in MCF-IM model; details: MCF-7 cells; PMA 20 ng/mL for 60 hr, compared with TNF-α, EGF, IL-6, TGF-β
Experimental: EMT assays were performed in 24-well plates (Costar, Corning Inc., Corning, N.Y., USA). For this assay, usually MCF-7 cells were seeded at 4×10^4/well/500 μL media one day before the experiment unless otherwise specified. Cells were stimulated with various EMT stimuli prepared in warm media the following day and monitored for EMT changes under the microscope specified below. The percentage of EMT was generally calculated based on phenotype counting 100 cells per field under the microscope. All the potential EMT stimuli used herein are described in Table 6 and they were prepared and stored as per supplier specification.
(§5) Phase contrast microscopy was utilized for EMT and wound healing assays under 10× or 20× magnification of Olympus Fluorescence 1X71 microscope. Images were captured and analyzed as described above except that wound healing assay pictures were also analyzed by Image J software (Free software in Public domain developed by NIH).
as §3, with “Cells were stimulated with 0.65 ng/ml of phorbol 12-myristate 13-acetate (PMA) (Sigma-Aldrich) or 20 ng/ml of TGF-β (R&D systems) for the times indicated.” left out
(§6) phase contrast microscopy was performed where cells were viewed at ×4 magnification (wound healing assay) or ×10 magnification (EMT) using an Olympus fluorescence IX71 microscope (Olympus) and images were captured using DPController software (2002 Olympus Optical Co. LTD) and analyzed using Photoshop CS3 (Adobe Systems Inc.). Scans were taken with a 10 μm scale bar.

[2] = system: MCF-7 cells (mammospheres); assay: Mammosphere assay in MCF-IM model; details: NCD38 5 μM for 17 hr prior to PMA for 6 days, mammospheres larger than 60 μm counted
Experimental: The following mammosphere culture media components were purchased from StemCell Technologies Inc., BC, Canada: Mammocult Basal medium (Human) (catalogue number-05621), Mammocult Proliferation Supplements (Human) (catalogue number-05622), heparin (catalogue number-07904) and hydrocortisone (catalogue number-[…]). Hydrocortisone powder was freshly dissolved into mammocult basal medium to get 10^−4M solution on the day of experiment. 50 mL of
Mammocult complete media was then prepared by addition of 45 mL Mammocult basal medium, 5 mL mammocult proliferation supplements, 100 μL of the 0.2% heparin stock, 500 μL of 10^−4M stock of hydrocortisone and 50 μL of the PNS. Mammocult complete media was either used on same day or stored for not more than 7 days at 4° C.
MCF-7 cells were grown in a 175 cm^2 cell culture flask and harvested using a cell scraper (Zellschaber, Switzerland) or FACS sorted as specified below. Importantly trypsin treatment was never used for harvesting cells as it interferes with the mammosphere assay. Harvested cells were then re-suspended in 1 mL mammocult complete media and centrifuged at 500×g for 3 minutes at 20° C. The cell pellet was then re-suspended in 1 mL mammocult complete media before counting the cells on the Vi-CELL counter. Cell dilutions were then prepared to stain 40,000 cells/2 mL and 2 mL of cells were seeded in the 6 well-ultra low adherent, flat bottom plates (Costar, Corning Inc, Corning, N.Y., USA). Cells were either stimulated or not treated according to the experimental protocol and incubated at 37° C., under 5% CO2 for 7 days in a Hepa-Filtered Infrared (IR) Incubator (Forma Scientific Inc., Materietta, Ohio). Mammospheres larger than 60 μm were counted per well on day 7 and pictures were taken with an Olympus microscope. All the mammosphere assays were performed in duplicate wells and the entire procedure was repeated at least twice.
Mammosphere culture media components were purchased from StemCell Technologies and mammosphere assays were performed as recommended by the manufacturer's guidelines. Briefly, 40,000 cells/2 ml cell dilutions were then prepared and 2 ml of cells were seeded in the 6 well-ultralow adherent, flat bottom plates (Costar). Mammospheres larger than 60 μm were counted per well on day 7 and pictures were taken.

MDA-MB 231 cells [3] = assay: FACS analysis of CD44high/CD24low CSC-like subpopulation in Basal/metastatic model; details: NCD38 5 μM
Experimental: as §1, §2, §3, §4

MDA-MB 231 cells [4] = assay: Phase contrast microscopy of EMT/MET in Basal/metastatic model; details: NCD38 5 μM
Experimental: as §5, §3, §6

Question: How did the inhibition at 0.1 µM ([1]; Homo sapiens, MCF7, MCF-IM model, C27 alone at 100 nM) turn out when `CC(C)[C@@](C)(O)[C@@H]1CN(c2nc(-c3n[nH]c4ncccc34)c(F)cc2Cl)CCN1` [Compound C27] was run?
Answer: ~30%

Question: And the inhibition at 0.5 µM ([1]; Homo sapiens, MCF7, MCF-IM model, C27 alone at 500 nM)?
Answer: ~90%

Question: How did the “generation of CD44high/CD24low CSC-like cells by FACS” value ([1]; MCF-7 cells stimulated with PMA 0.65 ng/mL for 60 hr) turn out when `CCCCCCCCCCCCCC(=O)O[C@@H]1[C@@H](C)[C@@]2(O)[C@@H](C=C(CO)C[C@]3(O)C(=O)C(C)=C[C@@H]23)[C@@H]2C(C)(C)[C@]12OC(C)=O` [PMA, Phorbol 12-Myristate 13-Acetate] was run?
Answer: generation of CD44^high/CD24^low-CSC like cells

Question: What about the “EMT (percentage of the cells undergoing EMT, morphological changes)” value (MCF-7 cells) of the same compound?
Answer: results in maximal EMT; also recorded: caused highest EMT changes

Question: What does the source list for `O=C(N[C@@H](CCNC1CC1c1ccccc1)C(=O)NCc1cccc(Cl)c1)c1ccc(-c2ccccc2)cc1` (some centres unmarked) [NCD-38]?
Answer: inhibition at 2.5 µM ([1]; Homo sapiens, MCF7, MCF-IM model, NCD-38 alone at 2.5 μM): ~50%; inhibition at 5 µM ([1]; Homo sapiens, MCF7, MCF-IM model, NCD-38 alone at 5 μM): ~60%; CD44 high CD24 low-CSC-like subpopulation (CSC formation) by FACS ([1]; MCF-IM model): inhibition CSC formation; CD44 high CD24 low-CSC-like subpopulation (CSC formation) by FACS ([1]; MCF-IM model, listed as NCD38): inhibits CD44 high CD24 low-CSC-like subpopulation; mammosphere formation [2]: inhibition CSC formation; mammosphere formation ([2]; listed as NCD38): reduce mammosphere formation; CD44 high CD24 low-CSC-like subpopulation (CSC formation) by FACS (MDA-MB 231 cells [3]): decrease of CSC formation; CD44 high CD24 low-CSC-like subpopulation (CSC formation) by FACS (MDA-MB 231 cells [3]; listed as NCD38): inhibits CD44 high CD24 low-CSC-like subpopulation; EMT / conversion of mesenchymal cells to epithelial cells (MET), phase contrast morphology (MDA-MB 231 cells [4]): conversion of mesenchymal cells in to epithelial cells; EMT / conversion of mesenchymal cells to epithelial cells (MET), phase contrast morphology (MDA-MB 231 cells [4]; listed as NCD38): inhibit EMT
